In paper PMC6100082, “Pyridine-Ureas as Potential Anticancer Agents: Synthesis and In Vitro Biological Evaluation” (Molecules : A Journal of Synthetic Chemistry and Natural …, 2018):
Read-outs that look alike come from different tables or passages of the source.

Key:
HT29 = test: NCI one-dose SRB assay (Colon Cancer); assay type: cell-based, human; conditions: for Growth Percent: HT29, 1.00E-5 Molar; for inhibition at 10 µM: Homo sapiens, HT-29, HT29, 10 μM, read-out: Percentage growth inhibition (GI%)
Experimental: (§1) The structures of all the newly prepared pyridine-ureas 8a–n were submitted to the National Cancer Institute (NCI) Developmental Therapeutic Program. Eight compounds 8b, 8d, 8e, 8i, 8j and 8l–n were selected to be examined for their in vitro growth inhibitory activity. The anticancer assays were carried out according to the protocol of the Drug Evaluation Branch, NCI, Bethesda. The selected pyridine-ureas were tested at one dose primary anticancer assay against a panel of approximately 58 cancer lines (concentration 10^−5 M). The tested human cancer cell lines emerged from nine different cancer subtypes: leukemia, colon, melanoma, ovarian, lung, CNS, renal, breast and prostate cancers. The sulforhodamine B (SRB) protein assay was adopted to estimate the cell viability and growth. The results were reported as mean-graph of the percentage growth of the treated cells, and presented as percentage growth inhibition (GI%) caused by the test compounds (Table 2).
(§2) The anticancer assays were performed in accordance with the protocol of the Drug Evaluation Branch, NCI, Bethesda. A 48 h drug exposure protocol was used and sulforhodamine B (SRB) protein assay was applied to estimate the cell viability and growth, as reported earlier.

HCC-2998 = test: NCI one-dose SRB assay (Colon Cancer); assay type: cell-based, human; conditions: for Growth Percent: HCC-2998, 1.00E-5 Molar; for inhibition at 10 µM: Homo sapiens, HCC-2998, 10 μM, read-out: Percentage growth inhibition (GI%)
Experimental: as §1, §2

HCT-15 = test: NCI one-dose SRB assay (Colon Cancer); assay type: cell-based, human; conditions: for Growth Percent: HCT-15, 1.00E-5 Molar; for inhibition at 10 µM: Homo sapiens, HCT-15, 10 μM, read-out: Percentage growth inhibition (GI%)
Experimental: as §1, §2

HCT-116 = test: NCI one-dose SRB assay (Colon Cancer); assay type: cell-based, human; conditions: for Growth Percent: HCT-116, 1.00E-5 Molar; for inhibition at 10 µM: Homo sapiens, HCT-116, 10 μM, read-out: Percentage growth inhibition (GI%)
Experimental: as §1, §2

T-47D = test: NCI one-dose SRB assay (Breast Cancer); assay type: cell-based, human; conditions: for Growth Percent: 1.00E-5 Molar; for inhibition at 10 µM: Homo sapiens, T47D, read-out: Percentage growth inhibition (GI%)
Experimental: as §1, §2

MDA-MB-468 = test: NCI one-dose SRB assay (Breast Cancer); assay type: cell-based, human; conditions: for inhibition at 10 µM: Homo sapiens, MDA-MB-468, 10 μM, read-out: Percentage growth inhibition (GI%); for Growth Percent: MDA-MB-468, 1.00E-5 Molar
Experimental: as §1, §2

MDA-MB-231 = test: NCI one-dose SRB assay (Breast Cancer); assay type: cell-based, human; conditions: for inhibition at 10 µM: Homo sapiens, MDA-MB-231, 10 μM, read-out: Percentage growth inhibition (GI%); for Growth Percent: MDA-MB-231/ATCC, 1.00E-5 Molar
Experimental: as §1, §2

MCF7 = test: NCI one-dose SRB assay (Breast Cancer); assay type: cell-based, human; conditions: for inhibition at 10 µM: Homo sapiens, MCF7, 10 μM, read-out: Percentage growth inhibition (GI%); for Growth Percent: MCF7, 1.00E-5 Molar
Experimental: as §1, §2

BT-549 = test: NCI one-dose SRB assay (Breast Cancer); assay type: cell-based, human; conditions: for Growth Percent: BT-549, 1.00E-5 Molar; for inhibition at 10 µM: Homo sapiens, BT-549, 10 μM, read-out: Percentage growth inhibition (GI%)
Experimental: as §1, §2

HS 578T = test: NCI one-dose SRB assay (Breast Cancer); assay type: cell-based, human; conditions: for Growth Percent: 1.00E-5 Molar; for inhibition at 10 µM: Homo sapiens, read-out: Percentage growth inhibition (GI%)
Experimental: as §1, §2

SF-539 = test: NCI one-dose SRB assay (CNS Cancer); assay type: cell-based, human; conditions: for inhibition at 10 µM: Homo sapiens, SF-539, 10 μM, read-out: Percentage growth inhibition (GI%); for Growth Percent: SF-539, 1.00E-5 Molar
Experimental: as §1, §2

SF-295 = test: NCI one-dose SRB assay (CNS Cancer); assay type: cell-based, human; conditions: for inhibition at 10 µM: Homo sapiens, SF-295, 10 μM, read-out: Percentage growth inhibition (GI%); for Growth Percent: SF-295, 1.00E-5 Molar
Experimental: as §1, §2

SNB-75 = test: NCI one-dose SRB assay (CNS Cancer); assay type: cell-based, human; conditions: for inhibition at 10 µM: Homo sapiens, SNB-75, 10 μM, read-out: Percentage growth inhibition (GI%); for Growth Percent: SNB-75, 1.00E-5 Molar
Experimental: as §1, §2

SNB-19 = test: NCI one-dose SRB assay (CNS Cancer); assay type: cell-based, human; conditions: for inhibition at 10 µM: Homo sapiens, SNB-19, 10 μM, read-out: Percentage growth inhibition (GI%); for Growth Percent: SNB-19, 1.00E-5 Molar
Experimental: as §1, §2

U251 = test: NCI one-dose SRB assay (CNS Cancer); assay type: cell-based, human; conditions: for inhibition at 10 µM: Homo sapiens, U-251, U251, 10 μM, read-out: Percentage growth inhibition (GI%); for Growth Percent: U251, 1.00E-5 Molar
Experimental: as §1, §2

SF-268 = test: NCI one-dose SRB assay (CNS Cancer); assay type: cell-based, human; conditions: for inhibition at 10 µM: Homo sapiens, SF-268, 10 μM, read-out: Percentage growth inhibition (GI%); for Growth Percent: SF-268, 1.00E-5 Molar
Experimental: as §1, §2

[1] = tested on: breast cancer MCF-7 cell line; test: In vitro anti-proliferative activity, MTT assay; assay type: cell-based, human; conditions: Homo sapiens, MCF-7, MTT
Method in brief: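 Cells were grown in DMEM with 10% heat-inactivated FBS, 10 μg/mL insulin and 1% penicillin-streptomycin. Anti-proliferative activity was measured by MTT colorimetric read-out, in triplicate. Values are the mean of at least three separate experiments.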

M14 = test: NCI one-dose SRB assay (Melanoma); assay type: cell-based, human; conditions: for inhibition at 10 µM: Homo sapiens, M14, 10 μM, read-out: Percentage growth inhibition (GI%); for Growth Percent: M14, 1.00E-5 Molar
Method in brief: (§3)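 One-dose primary screen per NCI Drug Evaluation Branch protocol: 10^−5 M compound, 48 h, SRB viability/growth read-out, GI% reported.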

MDA-MB-435 = test: NCI one-dose SRB assay (Melanoma); assay type: cell-based, human; conditions: for inhibition at 10 µM: Homo sapiens, MDA-MB-435, 10 μM, read-out: Percentage growth inhibition (GI%); for Growth Percent: MDA-MB-435, 1.00E-5 Molar
Method in brief: as §3

SK-MEL-2 = test: NCI one-dose SRB assay (Melanoma); assay type: cell-based, human; conditions: for inhibition at 10 µM: Homo sapiens, SK-MEL-2, 10 μM, read-out: Percentage growth inhibition (GI%); for Growth Percent: SK-MEL-2, 1.00E-5 Molar
Method in brief: as §3

SK-MEL-5 = test: NCI one-dose SRB assay (Melanoma); assay type: cell-based, human; conditions: for inhibition at 10 µM: Homo sapiens, SK-MEL-5, 10 μM, read-out: Percentage growth inhibition (GI%); for Growth Percent: SK-MEL-5, 1.00E-5 Molar
Method in brief: as §3

UACC-62 = test: NCI one-dose SRB assay (Melanoma); assay type: cell-based, human; conditions: for inhibition at 10 µM: Homo sapiens, UACC-62, 10 μM, read-out: Percentage growth inhibition (GI%); for Growth Percent: UACC-62, 1.00E-5 Molar
Method in brief: as §3

[2] = MCF7, 48 h, 48 h of incubation, read-out: IC50 48 h
[3] = MCF7, 72 h, 72 h of incubation, read-out: IC50 72 h

COc1cccc(NC(=O)Nc2ccc(-c3ccc(OC)c(OC)c3)nc2C)c1 [Compound 8m, 1-(6-(3,4-Dimethoxyphenyl)-2-methylpyridin-3-yl)-3-(3-methoxyphenyl) Urea]
Growth Percent (HT29): 75.95% | inhibition at 10 µM (HT29): 25% | Growth Percent (HCC-2998): 97.15% | inhibition at 10 µM (HCC-2998): < 10% | Growth Percent (HCT-15): 91.11% | inhibition at 10 µM (HCT-15): < 10% | Growth Percent (HCT-116): 78.84% | inhibition at 10 µM (HCT-116): 22% | Growth Percent (T-47D): 81.11% | inhibition at 10 µM (T-47D): 19% | inhibition at 10 µM (MDA-MB-468): < 10% | Growth Percent (MDA-MB-468): 99.00% | inhibition at 10 µM (MDA-MB-231): < 10% | Growth Percent (MDA-MB-231): 106.37% | inhibition at 10 µM (MCF7): 10% | Growth Percent (MCF7): 90.01% | Growth Percent (BT-549): 87.21% | inhibition at 10 µM (BT-549): 13% | Growth Percent (HS 578T): 99.31% | inhibition at 10 µM (HS 578T): < 10% | inhibition at 10 µM (SF-539): < 10% | Growth Percent (SF-539): 93.97% | inhibition at 10 µM (SF-295): < 10% | Growth Percent (SF-295): 99.68% | inhibition at 10 µM (SNB-75): < 10% | Growth Percent (SNB-75): 104.39% | inhibition at 10 µM (SNB-19): < 10% | Growth Percent (SNB-19): 115.50% | inhibition at 10 µM (U251): < 10% | Growth Percent (U251): 94.15% | inhibition at 10 µM (SF-268): < 10% | Growth Percent (SF-268): 94.56% | IC50 [1, 2]: 23 ± 1.91 µM | IC50 [1, 3]: 13.1 ± 1.12 µM | inhibition at 10 µM (M14): 10% | Growth Percent (M14): 90.93% | inhibition at 10 µM (MDA-MB-435): < 10% | Growth Percent (MDA-MB-435): 100.45% | inhibition at 10 µM (SK-MEL-2): 13% | Growth Percent (SK-MEL-2): 87.95% | inhibition at 10 µM (SK-MEL-5): 16% | Growth Percent (SK-MEL-5): 84.32% | inhibition at 10 µM (UACC-62): < 10% | Growth Percent (UACC-62): 93.89% | melting point: 243 to 245 °C

COc1ccc(-c2ccc(NC(=O)Nc3cccc(C(F)(F)F)c3)c(C)n2)cc1 [Compound 8b, 1-(6-(4-Methoxyphenyl)-2-methylpyridin-3-yl)-3-(3-(trifluoromethyl)phenyl) Urea]
Growth Percent (HT29): 47.65% | inhibition at 10 µM (HT29): 53% | Growth Percent (HCC-2998): 81.09% | inhibition at 10 µM (HCC-2998): 19% | Growth Percent (HCT-15): 40.87% | inhibition at 10 µM (HCT-15): 60% | Growth Percent (HCT-116): 26.93% | inhibition at 10 µM (HCT-116): 74% | Growth Percent (T-47D): 26.51% | inhibition at 10 µM (T-47D): 74% | inhibition at 10 µM (MDA-MB-468): 73% | Growth Percent (MDA-MB-468): 27.53% | inhibition at 10 µM (MDA-MB-231): 32% | Growth Percent (MDA-MB-231): 68.55% | inhibition at 10 µM (MCF7): 59% | Growth Percent (MCF7): 41.47% | Growth Percent (BT-549): 66.40% | inhibition at 10 µM (BT-549): 34% | Growth Percent (HS 578T): 88.85% | inhibition at 10 µM (HS 578T): 12% | inhibition at 10 µM (SF-539): 20% | Growth Percent (SF-539): 80.84% | inhibition at 10 µM (SF-295): 53% | Growth Percent (SF-295): 47.56% | inhibition at 10 µM (SNB-75): 23% | Growth Percent (SNB-75): 77.64% | inhibition at 10 µM (SNB-19): 33% | Growth Percent (SNB-19): 67.81% | inhibition at 10 µM (U251): 50% | Growth Percent (U251): 50.16% | inhibition at 10 µM (SF-268): 26% | Growth Percent (SF-268): 74.51% | IC50 [1, 2]: 5.66 ± 0.45 µM | IC50 [1, 3]: 5.03 ± 0.29 µM | inhibition at 10 µM (M14): 63% | Growth Percent (M14): 37.25% | inhibition at 10 µM (MDA-MB-435): 31% | Growth Percent (MDA-MB-435): 69.59% | inhibition at 10 µM (SK-MEL-2): 25% | Growth Percent (SK-MEL-2): 75.95% | inhibition at 10 µM (SK-MEL-5): 59% | Growth Percent (SK-MEL-5): 41.63% | inhibition at 10 µM (UACC-62): 37% | Growth Percent (UACC-62): 63.91% | melting point: 189 to 191 °C
